In patent US20230158178A1, “Radionuclide Tracers of 1-Amino-3,4-Difluorocyclopentane-1-Carboxylic Acid, Derivatives, and Uses Thereof” (Emory University, priority 2020, published 2023):

Tests used:
[1] = MicroPET biodistribution in normal Fischer rats (bladder accumulation); assay type: in vivo; conditions: post injection
Experimental: DFACPC, and anti-3-[^18F] FACBC.
(§1) [^18F]trans-3,4-DFACPC ([^18F]3.23) was prepared in 1.3% decay corrected radiochemical yield in greater than 99% radio-chemical purity. Competitive uptake inhibition studies with 9 L gliosarcoma, human U87 ΔEGFR glioblastoma, and human DU145 androgen-independent prostate carcinoma cells to establish the mechanism of transport of [^18F]3.23, as well as its affinity for each cell line. The biodistribution of [^18F]3.23 was assessed in normal and intracranial 9 L gliosarcoma bearing rats via micro-PET imaging.
MicroPET biodistribution studies in normal Fischer rats established that bladder accumulation of [^18F]3.23 is delayed until at least 10 minutes post injection. In rats bearing intracranial 9 L gliosarcoma, [^18F]3.23 gave tumor uptake values of up to 1.2% injected dose per gram (% ID/g) and tumor to contralateral brain tissue ratios of up to 2.8.

[2] = tested on: 9 L, U87 ΔEGFR, and DU145 cell; assay: Cell uptake and uptake inhibition, stated across all cell lines tested; assay type: cell-based, rat; human; conditions: for relative cell uptake (in words): all cell lines; for mechanism of transport (in words): each of the cell lines tested
Experimental: Data are presented as percent ligand uptake of the initial dose per 0.5 million cells (% ID/5×10^5 cells).
(§2) Consistent with this reasoning, having knowledge of which systems take part in transporting a particular amino acid is of value, since this information can be used to determine which tumor types the amino acid may be useful for imaging. To establish which systems are responsible for transporting a particular AA, cell uptake inhibition studies are performed. In these studies, a known number of cells of a certain line are suspended in a media containing a known quantity of an amino acid radiotracer and incubated for a set period to allow for the amino acid to be transported into the cells. […] The radioactivity present within the cells after rinsing is measured and expressed as a normalized percent uptake of the radioactive amino acid dose that the cells were initially exposed to. This experiment establishes the degree to which a given amino acid is taken up by a group of cells in the absence of any perturbing conditions and serves as the control.
(§3) With this information in hand, the cell uptake experiment is performed again, but in the presence of an excess of a substrate known to have a high affinity for a particular transport system. The excess substrate floods the targeted system, competitively inhibiting the transport of other amino acids. Consequently, any reduction in cellular uptake of radioactivity relative to the control experiment is assumed to arise from loss of amino acid transport by the inhibited system. It follows that if inhibition of a transport system results in reduced uptake of a given amino acid, then that system contributes to cellular transport of the amino acid. Furthermore, the degree to which the system participates in transport can be roughly evaluated by the percent loss (inhibition) of amino acid uptake relative to the control. In addition to delineating transport mechanisms, cell uptake studies provide insight into the avidity of a particular cell line for an amino acid.
(§4) The potential of [^18F]3.09, [^18F]3.23, and [^18F]3.33 as PET radiotracers were evaluated for imaging brain and prostate cancer, cell uptake studies with rat 9 L gliosarcoma, human U87 ΔEGFR glioblastoma, and human DU145 androgen-independent prostate carcinoma. Uptake data for anti-3-[^18F]-FACBC were also collected under the same conditions for comparison. Alpha-(methylamino)isobutyric acid (MeAIB) was used as a competitive inhibitor for system A transport, 2-amino-bicyclo[2.2.1]heptane2-carboxylic acid (BCH) was used to inhibit system L, and the combination of alanine, serine, and cysteine was used for inhibition of system ASC.

[3] = tested on: human DU145 androgen-independent prostate carcinoma; assay: Cell uptake study in DU145 prostate carcinoma cells; assay type: cell-based; conditions: for uptake in DU145 cells: no inhibitor, 30 min incubation
Experimental: as §2, §3, §4

[4] = tested on: intracranial 9 L gliosarcoma tumors; assay: MicroPET biodistribution in Fischer rats bearing intracranial 9 L gliosarcoma tumors; assay type: in vivo; conditions: for tumor uptake at final time point: final time point / final scan; for background uptake in healthy brain: normal brain, range over the study
Experimental: To gain insight into the biodistribution profiles of [^18F]3.09, [^18F]3.23, and [^18F]3.33 each was administered to Fischer rats bearing intracranial 9 L gliosarcoma tumors, which have been used extensively as models for human glioma. With each tracer, uptake in 9 L tumors was higher than in normal brain tissue at all time points, peaking near the 12.5-minute time point. Tumor uptake was highest with [^18F]3.09 and stayed fairly constant at 2.0-2.2% injected dose per gram of tissue (% ID/g) throughout the course of the study. […] While absolute uptake in tumors was highest with [^18F]3.09, background uptake in healthy brain was also highest with this stereoisomer, ranging from 0.59-0.96% % ID/g, compared to uptake values of 0.39-0.46 and 0.28-0.36% ID/g obtained with [^18F]3.23 and [^18F]3.33, respectively.
as §1

rat 9 L gliosarcoma = conditions: 9 L gliosarcoma cells; cited from earlier work
[5] = tested on: human U87 ΔEGFR glioblastoma; assay: Cell uptake inhibition study in U87 ΔEGFR glioblastoma cells; assay type: cell-based
Experimental: as §2, with “This experiment establishes the degree to which a given amino acid is taken up by a group of cells in the absence of any perturbing conditions and serves as the control.” left out
With this information in hand, the cell uptake experiment is performed again, but in the presence of an excess of a substrate known to have a high affinity for a particular transport system. […] Consequently, any reduction in cellular uptake of radioactivity relative to the control experiment is assumed to arise from loss of amino acid transport by the inhibited system. […] Furthermore, the degree to which the system participates in transport can be roughly evaluated by the percent loss (inhibition) of amino acid uptake relative to the control. […]

[6] = 4.5-minute time point (highest for the tracer)
[7] = range over the three cell lines

Compound: N[C@]1(C(=O)O)C[C@@H](F)[C@H]([18F])C1 (racemic) [[^18F]3.23, trans-[^18F]-1-amino-3,4-difluorocyclopentane-1-carboxylic acid]
- bladder accumulation delayed until [1]: at least 10 minutes
- relative cell uptake (in words) [2]: greater uptake than [^18F]3.33 in all cell lines
- mechanism of transport (in words) [2]: transported primarily via system L with some transport occurring via system ASC
- avidity of DU145 cells (in words) [3]: substantially greater avidity
- uptake in DU145 cells, fold higher than [^18F]-FACBC [3]: 1.7 fold
- uptake in DU145 cells, fold higher than the best cis-3,4-DFACPC analog [3]: ~2 fold
- uptake in DU145 cells [3]: 34 % ID/5×10^5 cells
- tumor uptake at final time point ([4]; 9 L tumor): 1.1 % ID/g
- L/N ratio ([4]; 12.5-minute mark (maximum)): 2.8
- L/N ratio ([4]; 52.5 minutes): 2.4
- tumor to contralateral brain tissue ratios ([4]; maximum (up to)): up to 2.8
- background uptake in healthy brain [4]: 0.39-0.46 % ID/g

Compound: N[C@@]1(C(=O)O)C[C@@H]([18F])[C@@H](F)C1 [[^18F]3.33, syn-cis-[^18F]-1-amino-3,4-difluorocyclopentane-1-carboxylic acid]
- L/N ratio [4, 6]: 4.3
- tumor uptake at final time point ([4]; 9 L tumor): 0.8 % ID/g
- tumor uptake, peak value ([4]; 9 L tumor, peak / maximum): 1.2 % ID/g
- background uptake in healthy brain [4]: 0.28-0.36 % ID/g

Compound: N[C@]1(C(=O)O)C[C@@H](F)C1 [anti-3-[^18F]-FACBC, anti-1-amino-3-[^18F]fluorocyclobutane-1-carboxylic acid]
- uptake levels, percent of the initial dose per 0.5 million cells ([2]; across all cell lines tested, no inhibitor, 30 min incubation): 6-20 % ID/5×10^5 cells
- mechanism of transport (in words) [2]: primarily a substrate for system ASC
- inhibition of uptake by BCH (system L) [2, 7]: 36-56%
- inhibition of uptake by alanine, serine, and cysteine (system ASC) [2, 7]: 73-87%
- uptake in DU145 cells [3]: 20 % ID/5×10^5 cells

Compound: N[C@]1(C(=O)O)CCC[C@@H]1[18F] [anti-2-[^18F]-FACPC, anti-1-amino-2-[^18F] fluorocyclopentane-1-carboxylic acid]
- inhibition of uptake by BCH (system L) (rat 9 L gliosarcoma): 71%
- inhibition of uptake by MeAIB (system A) (rat 9 L gliosarcoma): 38%
- inhibition of uptake by alanine, serine, and cysteine (system ASC) (rat 9 L gliosarcoma): 65%

Compound: N[C@]1(C(=O)O)C[C@@H](F)[C@@H]([18F])C1 [[^18F]3.09, anti-cis-[^18F]-1-amino-3,4-difluorocyclopentane-1-carboxylic acid]
- relative cell uptake (in words) [2]: greater uptake than [^18F]3.33 in all cell lines
- uptake in DU145 cells [3]: 18 % ID/5×10^5 cells
- inhibition of uptake by BCH [5]: 50%
- inhibition of uptake by alanine, serine, and cysteine [5]: 78%
- L/N ratio [4, 6]: 3.5
- tumor uptake, injected dose per gram of tissue ([4]; 9 L tumor, throughout the course of the study): 2.0-2.2 % ID/g
- background uptake in healthy brain [4]: 0.59-0.96 % ID/g
